Test results taken from patent US20150223675A1, “LUMINAL ADMINISTRATION OF TAG MOLECULES FOR DIAGNOSTIC APPLICATIONS” (GIVEN IMAGING LTD., priority 2012, published 2015).
Values joined by “and” are separate entries in the source; they are usually repeats but may differ in a detail not shown here. Equal entries are not always repeated.

Columns and labels:
[1] = system: human colorectal tumors; test: Luminal (rectal, minicolonoscope) administration of dye to orthotopic mice; fluorescence of tumor and surrounding colon tissue by fluorescent camera, with histopathology; format: in vivo, mouse; settings: for fluorescent labeling of tumor exposed to the colon lumen: tumor confirmed by histopathology
Procedure: Orthotopic mice with human colorectal tumors in their colons were used for […] administration of the IR-783 derivative—IR-783-S-PH-COOH. 4 μg of the IR-783-S-PH-COOH dissolved in 200 μl PBS were introduced into the colon of the mouse via minicolonoscope inserted through the rectum. The IR-783-S-PH-COOH solution was incubated in the colon for 20 minutes and then washed out with 5 ml PBS inserted through the rectum. Four hours later, mice were sacrificed and the fluorescence of the tumor and the surrounding colon tissue was measured by a fluorescent camera setup. Histopathological examination was performed on paraffin fixed colonic tissue specimens.
Orthotopic mice with human colorectal tumors in their colons were used for luminal administration of IR-783. 4 μg of IR-783 dissolved in 200 μl PBS were introduced into the colon of the mouse via a minicolonoscope inserted through the rectum. The IR-783 solution was incubated in the colon for 20 minutes and then washed out with 5 ml of PBS. 4 h later, the mice were sacrificed and the fluorescence of the tumor and the surrounding colon was measured by a fluorescent camera setup. Histopathological examination was performed on paraffin fixed colonic tissue specimens.

[2] = Gastric gavage of dye to mice; organ fluorescence (liver, spleen, heart, lungs, kidneys, brain) by fluorescent camera; format: in vivo; settings: 5 hours later
Procedure: 4 μg of IR-783 dissolved in 200 μl PBS were introduced into mice stomach by gastric gavage. Five hours later, the mice were sacrificed and liver, spleen, heart, lungs, kidneys and brain were collected and measured for fluorescence by a fluorescent camera setup. […] Grey levels of the organs are indicated by the numbers on the fluorescent pictures next to the imaged organs, e.g., grey level in the liver was 4000 in two mice and 2500 in a third mouse, and grey levels in the kidneys were 3500, 200 and 1200, respectively.

[3] = system: tumors; settings: 24 hours after dye administration by injection; prior art; cited from earlier work
[4] = 4 μg in 200 μl PBS into colon, 20 min incubation, 4 h later
[5] = 4 μg in 200 μl PBS by gastric gavage, individual mice

Compound | fluorescent labeling of tumor exposed to the colon lumen [1, 4] | tumor to background ratio ([1]; 4 μg in 200 μl PBS into colon, 20 min incubation, washed out, measured 4 h later, 1 second exposure, histopathologically confirmed tumor) | fluorescent labeling of non-cancerous lymphatic tissue region ([1]; 4 μg into colon, 4 h later, suspected region with no tumor cells) | fluorescent labeling of tumors developed below the murine mucosal layer (not exposed to colon lumen) ([1]; 4 μg into colon, 20 min incubation, 4 h later, FIG. 6B) | organs in which fluorescence was detected ([2]; 4 μg by gastric gavage, liver, spleen, heart, lungs, kidneys, brain examined) | grey level in the liver [2, 5] | grey levels in the kidneys [2, 5] | dye concentration in tumors compared to normal body tissue [3]
IR-783-S-PH-COOH | intensely labeled | 60 | not labeled | – | – | – | – | –
CC1(C)C(=CC=C2CCCC(C=CC3=[N+](CCCCS(=O)(=O)[O-])c4ccccc4C3(C)C)=C2Cl)N(CCCCS(=O)(=O)[O-])c2ccccc21.[Na+] [IR-783] | intensely labeled | – | – | not labeled | detected in the liver and kidneys | 4000 and 2500 | 3500 and 200 and 1200 | much higher in tumors
